10 compounds from the SangsterLogP compilation can be followed below.

One series can be described thus: method code SF-AS, from Wang, W.; Wang, L.; Tian, L.; Zhang, Z.; Qiu, J. (1987). Partition coefficients of the intermediate of pyrethroid in n-octanol/water system. Huazhong Gongxueyuan Xuebao, 15(1)135-137.
Turning to `N#CCc1ccc(Cl)cc1`, the lipophilicity (logP) was found to be 2.47. As to `CCOCc1ccccc1`, the logP is 2.16. Compound `COCc1ccc(CC#N)cc1` showed a logP of 1.23.

Turning to `COCc1ccccc1`, the lipophilicity (logP) worked out at 1.67. Same read-out and setting: then `ClCc1ccc(Cl)cc1`, with 3.18; and `CC(C)C(C#N)c1ccc(Cl)cc1` (stereo not given), with 3.41. On the same count and under the same terms, then `COCc1ccc(COC)cc1`, with 1.28. Same read-out and setting: then `C=CCOCc1ccccc1`, with 2.41; and `Cc1ccc(CC#N)cc1`, with 1.67.

Experiment in the next series: not given
Regarding `COCc1ccc(C#N)cc1`, the lipophilicity (logP) stood at 1.23.

The logP is the decadic logarithm of the partition coefficient of the neutral form, usually between octanol and water. Read a low logP as a more hydrophilic compound.
